Experimental data reported in ChEMBL document CHEMBL4177650, “Synthesis and biological evolution of hydrazones derived from 4-(trifluoromethyl)benzohydrazide” (Bioorg Med Chem Lett, 2017).
Activity calls are given as the source filed them.

What was measured:
[1] = tested on: Mycobacterium tuberculosis; experiment: Antimycobacterial activity against Mycobacterium tuberculosis H37Rv 331/88 after 14 days by micromethod; format: functional; conditions: H37Rv 331/88, 336 h
[2] = tested on: Mycobacterium tuberculosis; experiment: Antimycobacterial activity against Mycobacterium tuberculosis H37Rv 331/88 after 21 days by micromethod; format: functional; conditions: H37Rv 331/88, 504 h
Mycobacterium avium [3] = experiment: Antimycobacterial activity against Mycobacterium avium 330/88 after 14 days by micromethod; format: functional; conditions: 330/88, 336 h
Mycobacterium avium [4] = experiment: Antimycobacterial activity against Mycobacterium avium 330/88 after 21 days by micromethod; format: functional; conditions: 330/88, 504 h
Mycobacterium kansasii [5] = experiment: Antimycobacterial activity against Mycobacterium kansasii 6509/80 after 7 days by micromethod; format: functional; conditions: 6509/80, 168 h
Mycobacterium kansasii [6] = experiment: Antimycobacterial activity against Mycobacterium kansasii 6509/80 after 14 days by micromethod; format: functional; conditions: 6509/80, 336 h
Mycobacterium kansasii [7] = experiment: Antimycobacterial activity against Mycobacterium kansasii 6509/80 after 21 days by micromethod; format: functional; conditions: 6509/80, 504 h
Mycobacterium kansasii [8] = experiment: Antimycobacterial activity against Mycobacterium kansasii 6509/96 after 7 days by micromethod; format: functional; conditions: 6509/96, 168 h
Mycobacterium kansasii [9] = experiment: Antimycobacterial activity against Mycobacterium kansasii 6509/96 after 14 days by micromethod; format: functional; conditions: 6509/96, 336 h
Mycobacterium kansasii [10] = experiment: Antimycobacterial activity against Mycobacterium kansasii 6509/96 after 21 days by micromethod; format: functional; conditions: 6509/96, 504 h
Staphylococcus aureus [11] = experiment: Antibacterial activity against gram-positive Staphylococcus aureus CCM 4516/08 after 24 hrs by microdilution broth method; format: functional; conditions: CCM 4516/08, 24 h
Staphylococcus aureus [12] = experiment: Antibacterial activity against gram-positive Staphylococcus aureus CCM 4516/08 after 48 hrs by microdilution broth method; format: functional; conditions: CCM 4516/08, 48 h
Staphylococcus aureus [13] = experiment: Antibacterial activity against gram-positive methicillin-resistant Staphylococcus aureus H 5996/08 after 24 hrs by microdilution broth method; format: functional; conditions: H 5996/08, 24 h
Staphylococcus aureus [14] = experiment: Antibacterial activity against gram-positive methicillin-resistant Staphylococcus aureus H 5996/08 after 48 hrs by microdilution broth method; format: functional; conditions: H 5996/08, 48 h
[15] = tested on: Staphylococcus epidermidis; experiment: Antibacterial activity against gram-positive Staphylococcus epidermidis H 6966/08 after 24 hrs by microdilution broth method; format: functional; conditions: H 6966/08, 24 h
[16] = tested on: Staphylococcus epidermidis; experiment: Antibacterial activity against gram-positive Staphylococcus epidermidis H 6966/08 after 48 hrs by microdilution broth method; format: functional; conditions: H 6966/08, 48 h
Enterococcus faecalis [17] = experiment: Antibacterial activity against gram-positive Enterococcus faecalis J 14365/08 after 24 hrs by microdilution broth method; format: functional; conditions: J 14365/08, 24 h
Enterococcus faecalis [18] = experiment: Antibacterial activity against gram-positive Enterococcus faecalis J 14365/08 after 48 hrs by microdilution broth method; format: functional; conditions: J 14365/08, 48 h
Escherichia coli [19] = experiment: Antibacterial activity against gram-negative Escherichia coli CCM 4517 after 24 hrs by microdilution broth method; format: functional; conditions: CCM 4517, 24 h
Escherichia coli [20] = experiment: Antibacterial activity against gram-negative Escherichia coli CCM 4517 after 48 hrs by microdilution broth method; format: functional; conditions: CCM 4517, 48 h
Klebsiella pneumoniae [21] = experiment: Antibacterial activity against gram-negative Klebsiella pneumoniae D 11750/08 after 24 to 48 hrs by microdilution broth method; format: functional, organism-based
Pseudomonas aeruginosa = experiment: Antibacterial activity against gram-negative Pseudomonas aeruginosa CCM 1961 after 48 hrs by microdilution broth method; format: functional, organism-based
Klebsiella pneumoniae [22] = experiment: Antibacterial activity against extended spectrum beta-lactamase-positive Klebsiella pneumoniae J 14368/08 after 24 to 48 hrs by microdilution broth method; format: functional, organism-based
Candida tropicalis [23] = experiment: Antifungal activity against Candida tropicalis 156 after 24 hrs by microdilution broth method; format: functional; conditions: Candida tropicalis, 156, 24 h
Candida tropicalis [24] = experiment: Antifungal activity against Candida tropicalis 156 after 48 hrs by microdilution broth method; format: functional; conditions: Candida tropicalis, 156, 48 h
Pichia kudriavzevii [25] = experiment: Antifungal activity against Candida krusei E28 after 24 hrs by microdilution broth method; format: functional; conditions: E28, 24 h
Pichia kudriavzevii [26] = experiment: Antifungal activity against Candida krusei E28 after 48 hrs by microdilution broth method; format: functional; conditions: E28, 48 h
Nakaseomyces glabratus [27] = experiment: Antifungal activity against Candida glabrata 20/I after 24 hrs by microdilution broth method; format: functional
Nakaseomyces glabratus [28] = experiment: Antifungal activity against Candida glabrata 20/I after 48 hrs by microdilution broth method; format: functional
[29] = tested on: Trichophyton mentagrophytes; experiment: Antifungal activity against Trichophyton mentagrophytes 445 after 72 hrs by microdilution broth method; format: functional; conditions: Trichophyton mentagrophytes, 445, 72 h
[30] = tested on: Trichophyton mentagrophytes; experiment: Antifungal activity against Trichophyton mentagrophytes 445 after 120 hrs by microdilution broth method; format: functional; conditions: Trichophyton mentagrophytes, 445, 120 h
Candida albicans = experiment: Antifungal activity against Candida albicans ATCC 44859 after 24 to 48 hrs by microdilution broth method; format: functional, organism-based
Trichosporon asahii = experiment: Antifungal activity against Trichosporon asahii 1188 after 24 to 48 hrs by microdilution broth method; format: functional, organism-based
Aspergillus fumigatus = experiment: Antifungal activity against Aspergillus fumigatus 231 after 24 to 48 hrs by microdilution broth method; format: functional, organism-based
Lichtheimia corymbifera = experiment: Antifungal activity against Absidia corymbifera 272 after 24 to 48 hrs by microdilution broth method; format: functional, organism-based
HepG2 [31] = experiment: Cytostatic activity against human HepG2 cells incubated overnight followed by compound wash measured after 72 hrs by MTT assay; format: ADME, cell-based; conditions: HepG2, 72 h
MONO-MAC-6 [32] = experiment: Cytostatic activity against human MONO-MAC-6 cells incubated overnight followed by compound wash measured after 72 hrs by MTT assay; format: ADME, cell-based; conditions: MONO-MAC-6, 72 h
HepG2 [33] = experiment: Cytotoxicity against human HepG2 cells after overnight incubation by MTT assay; format: cell-based
MONO-MAC-6 [34] = experiment: Cytotoxicity against human MONO-MAC-6 cells after overnight incubation by MTT assay; format: functional, cell-based
[35] = Cytotoxicity against mouse bone marrow macrophages after overnight incubation by MTT assay; conditions: BMDM
[36] = Selectivity index, ratio of IC50 for human HepG2 cells to MIC for Candida glabrata 20/I; format: toxicity; conditions: read-out: Selectivity Index
[37] = Selectivity index, ratio of IC50 for human HepG2 cells to MIC for Trichophyton mentagrophytes 445; format: toxicity; conditions: read-out: Selectivity Index
[38] = Selectivity index, ratio of IC50 for human HepG2 cells to MIC for Mycobacterium tuberculosis H37Rv 331/88; format: toxicity; conditions: read-out: Selectivity Index
[39] = Selectivity index, ratio of IC50 for human HepG2 cells to MIC for Mycobacterium avium 330/88; format: toxicity; conditions: read-out: Selectivity Index
[40] = Selectivity index, ratio of IC50 for human HepG2 cells to MIC for Mycobacterium kansasii 6509/80; format: toxicity; conditions: read-out: Selectivity Index
[41] = Selectivity index, ratio of IC50 for human HepG2 cells to MIC for Mycobacterium kansasii 6509/96; format: toxicity; conditions: read-out: Selectivity Index
[42] = Selectivity index, ratio of IC50 for human HepG2 cells to MIC for gram-positive Staphylococcus aureus CCM 4516/08; format: toxicity; conditions: read-out: Selectivity Index

O=C(N/N=C/c1ccccc1O)c1ccc(C(F)(F)F)cc1
7.81 µM: MIC [29]
500 µM: MIC (Staphylococcus aureus [11]) | MIC (Staphylococcus aureus [13]) | MIC [16] | MIC (Escherichia coli [19]) | MIC (Escherichia coli [20])
> 100 µM: IC50 (HepG2 [33]) | IC50 [35]
inactive: Activity (Klebsiella pneumoniae [21]) | Activity (Pseudomonas aeruginosa) | Activity (Klebsiella pneumoniae [22]) | Activity (Candida albicans) | Activity (Trichosporon asahii) | Activity (Aspergillus fumigatus) | Activity (Lichtheimia corymbifera)
2.28 µM: IC50 (MONO-MAC-6 [34])
1.7 µM: IC50 (MONO-MAC-6 [32])
125 µM: MIC [1] | MIC (Mycobacterium avium [3])
15.6 µM: MIC (Nakaseomyces glabratus [28]) | MIC [30]
3.9 µM: MIC (Nakaseomyces glabratus [27])
> 500 µM: MIC (Staphylococcus aureus [12]) | MIC (Staphylococcus aureus [14])
250 µM: MIC [2] | MIC (Mycobacterium avium [4]) | MIC (Mycobacterium kansasii [5]) | MIC (Mycobacterium kansasii [6]) | MIC (Mycobacterium kansasii [7]) | MIC (Mycobacterium kansasii [8]) | MIC (Mycobacterium kansasii [9]) | MIC (Mycobacterium kansasii [10]) | MIC [15] | MIC (Enterococcus faecalis [17]) | MIC (Enterococcus faecalis [18])
6.2 µM: IC50 (HepG2 [31])
> 125 µM: MIC (Candida tropicalis [23]) | MIC (Candida tropicalis [24]) | MIC (Pichia kudriavzevii [25]) | MIC (Pichia kudriavzevii [26])
> 6.4: selectivity ratio [36] | selectivity ratio [37]

O=C(N/N=C/c1ccc(Cl)cc1)c1ccc(C(F)(F)F)cc1
62.5 µM: MIC (Staphylococcus aureus [11]) | MIC (Staphylococcus aureus [12]) | MIC (Staphylococcus aureus [13]) | MIC (Staphylococcus aureus [14]) | MIC [16] | MIC (Enterococcus faecalis [17]) | MIC (Pichia kudriavzevii [25]) | MIC (Pichia kudriavzevii [26])
> 6.25: selectivity ratio [38] | selectivity ratio [39] | selectivity ratio [40] | selectivity ratio [41]
16 µM: MIC [1] | MIC [2] | MIC (Mycobacterium kansasii [5]) | MIC (Mycobacterium kansasii [6]) | MIC (Mycobacterium kansasii [7]) | MIC (Mycobacterium kansasii [8]) | MIC (Mycobacterium kansasii [9]) | MIC (Mycobacterium kansasii [10])
> 1.6: selectivity ratio [42]
> 125 µM: MIC (Mycobacterium avium [3]) | MIC (Mycobacterium avium [4]) | MIC (Enterococcus faecalis [18]) | MIC (Escherichia coli [19]) | MIC (Escherichia coli [20]) | MIC (Nakaseomyces glabratus [27]) | MIC (Nakaseomyces glabratus [28])
> 100 µM: IC50 (HepG2 [31]) | IC50 (MONO-MAC-6 [32]) | IC50 (HepG2 [33]) | IC50 (MONO-MAC-6 [34])
31.2 µM: MIC [15]
125 µM: MIC (Candida tropicalis [23]) | MIC (Candida tropicalis [24]) | MIC [29] | MIC [30]
7.05 µM: IC50 [35]
inactive: Activity (Klebsiella pneumoniae [21]) | Activity (Pseudomonas aeruginosa) | Activity (Klebsiella pneumoniae [22]) | Activity (Candida albicans) | Activity (Trichosporon asahii) | Activity (Aspergillus fumigatus) | Activity (Lichtheimia corymbifera)

O=C(N/N=C/c1cc(Cl)ccc1O)c1ccc(C(F)(F)F)cc1
5.8 µM: IC50 (MONO-MAC-6 [34])
13.6 µM: IC50 (HepG2 [31])
10.3 µM: IC50 (MONO-MAC-6 [32])
≤ 0.49 µM: MIC (Nakaseomyces glabratus [27])
250 µM: MIC (Escherichia coli [19]) | MIC (Escherichia coli [20])
> 25.6: selectivity ratio [36] | selectivity ratio [37]
> 50.5: selectivity ratio [42]
inactive: Activity (Klebsiella pneumoniae [21]) | Activity (Pseudomonas aeruginosa) | Activity (Klebsiella pneumoniae [22]) | Activity (Candida albicans) | Activity (Trichosporon asahii) | Activity (Aspergillus fumigatus) | Activity (Lichtheimia corymbifera)
> 1.6: selectivity ratio [38] | selectivity ratio [39] | selectivity ratio [40] | selectivity ratio [41]
> 100 µM: IC50 (HepG2 [33]) | IC50 [35]
> 125 µM: MIC (Candida tropicalis [23]) | MIC (Candida tropicalis [24]) | MIC (Pichia kudriavzevii [25]) | MIC (Pichia kudriavzevii [26])
0.98 µM: MIC (Nakaseomyces glabratus [28])
3.9 µM: MIC [15] | MIC [16] | MIC (Enterococcus faecalis [18]) | MIC [30]
125 µM: MIC (Mycobacterium avium [4]) | MIC (Mycobacterium kansasii [6]) | MIC (Mycobacterium kansasii [7]) | MIC (Mycobacterium kansasii [9]) | MIC (Mycobacterium kansasii [10])
1.98 µM: MIC (Staphylococcus aureus [11]) | MIC (Staphylococcus aureus [12]) | MIC (Staphylococcus aureus [13]) | MIC (Staphylococcus aureus [14]) | MIC (Enterococcus faecalis [17]) | MIC [29]
62.5 µM: MIC [1] | MIC [2] | MIC (Mycobacterium avium [3]) | MIC (Mycobacterium kansasii [5]) | MIC (Mycobacterium kansasii [8])
